In patent US20100266567A1, “USE OF URATE OXIDASE FOR THE TREATMENT OR PROPHYLAXIS OF DISORDERS OR INDIRECT SEQUELAE OF THE HEART CAUSED BY ISCHEMIC OR REPERFUSION EVENTS” (sanofi-aventis, priority 2007, published 2010):

Experiments:
[1] = test system: isolated rat hearts with global ischemia and reperfusion; assay: Isolated working rat heart with global ischemia and reperfusion: coronary flow and contractility
Excerpt: Effects on Coronary Flow and Contractility of the Heart with Global Ischemia and Reperfusion: […]

[2] = test system: isolated rat hearts; assay: Isolated working rat heart: coronary flow and contractility
Excerpt: As biological materials the isolated hearts of male Wistar rats were used which were purchased from our Laboratory Animal Science and Welfare (LASW). The heart function (coronary flow and contractility) was investigated on the “Isolated Working Heart” model as previously described (Itter G et al., Laboratory Animals (2005) 39; 178-193). The hearts were first perfused according to Langendorff's method with an oxygenated (95% O2, 5% CO2) noncirculating Krebs-Henseleit solution of the following compositions (mmol/L): NaCl, 118; KCl, 4.7; CaCl2, 2.5; MgSO4, 1.6; NaHCO3, 24.9; KH2PO4, 1.2; glucose, 5.5; Na-pyruvate, 2.0. A catheter placed into the pulmonary artery drained the coronary effluent perfusate that was collected for determination of coronary flow and venous PO2 measurements. The left atrium was cannulated by an incision of the left auricle. After a 15-minute equilibration period at a fixed perfusion pressure of 60 mmHg, the heart was switched into the working mode at a fixed filling pressure of 11 mmHg. Coronary flow (CF) and pressure signals (dP/dtmax) were sampled at 500 Hz, averaged every 2 seconds.
High rasburicase concentrations were tested in combination with different uric acid concentrations on isolated working rat hearts for their possible adverse cardiac effects caused by the generated hydrogenperoxide (H2O2).

[3] = addition of ascorbic acid 1 mM to Rasb 50 μg/mL + UA 30 mg/L
[4] = UA 15 mg/L (Rasb 50 μg/mL where present), 1 min before ischemia
[5] = UA 15 mg/L (Rasb 50 μg/mL where present), 5 min before ischemia
[6] = UA 15 mg/L (Rasb 50 μg/mL where present), Global Ischemia
[7] = UA 15 mg/L (Rasb 50 μg/mL where present), Reperf. 5 min after Ischemia
[8] = UA 15 mg/L (Rasb 50 μg/mL where present), Reperf. 10 min after Ischemia
[9] = UA 15 mg/L (Rasb 50 μg/mL where present), Reperf. 15 min after Ischemia
[10] = UA 30 mg/L (Rasb 50 μg/mL where present), 1 min before ischemia, Table 5
[11] = UA 30 mg/L (Rasb 50 μg/mL where present), 5 min before ischemia, Table 5
[12] = UA 30 mg/L (Rasb 50 μg/mL where present), Global Ischemia, Table 5
[13] = UA 30 mg/L (Rasb 50 μg/mL where present), Reperf. 5 min after Ischemia, Table 5
[14] = UA 30 mg/L (Rasb 50 μg/mL where present), Reperf. 10 min after Ischemia, Table 5
[15] = UA 30 mg/L (Rasb 50 μg/mL where present), Reperf. 15 min after Ischemia, Table 5

Molecule: O=C1O[C@H]([C@@H](O)CO)C(O)=C1O [ascorbic acid, Ascorbic acid]
- contractility after ischemia/reperfusion (in words) [1, 3]: further improvement
- coronary flow after ischemia/reperfusion (in words) [1, 3]: normalization

Molecule: O=c1[nH]c(=O)c2[nH]c(=O)[nH]c2[nH]1 [Uric Acid, Uric acid]
- contractility (dP/dtmax) ([2]; male, Wistar, rat, 6 mg/L): 3867 ± 327 mmHg/s
- coronary flow (CF) ([2]; male, Wistar, rat, 6 mg/L): 13.51 ± 1.02 mL/min
- contractility (dP/dtmax) [1, 4]: 3608 ± 318 mmHg/s
- coronary flow (CF) [1, 4]: 12.82 ± 0.75 mL/min
- contractility (dP/dtmax) [1, 5]: 3600 ± 250 mmHg/s
- coronary flow (CF) [1, 5]: 13.28 ± 0.7 mL/min
- contractility (dP/dtmax) [1, 6]: 61 ± 1 mmHg/s
- coronary flow (CF) [1, 6]: 0.38 ± 0.06 mL/min
- contractility (dP/dtmax) [1, 7]: 1057 ± 496 mmHg/s
- coronary flow (CF) [1, 7]: 4.47 ± 1.69 mL/min
- contractility (dP/dtmax) [1, 8]: 1284 ± 667 mmHg/s
- coronary flow (CF) [1, 8]: 4.71 ± 1.86 mL/min
- contractility (dP/dtmax) [1, 9]: 1403 ± 736 mmHg/s
- coronary flow (CF) [1, 9]: 4.73 ± 1.85 mL/min
- contractility (dP/dtmax) [1, 10]: 4017 ± 437 mmHg/s
- coronary flow (CF) [1, 10]: 13.11 ± 0.88 mL/min
- contractility (dP/dtmax) [1, 11]: 4020 ± 350 mmHg/s
- coronary flow (CF) [1, 11]: 13.33 ± 0.7 mL/min
- contractility (dP/dtmax) [1, 12]: 59 ± 2 mmHg/s
- coronary flow (CF) [1, 12]: 0.31 ± 0.02 mL/min
- contractility (dP/dtmax) [1, 13]: 2224 ± 418 mmHg/s
- coronary flow (CF) [1, 13]: 8.34 ± 1.88 mL/min
- contractility (dP/dtmax) [1, 14]: 2898 ± 314 mmHg/s
- coronary flow (CF) [1, 14]: 9.16 ± 1.29 mL/min
- contractility (dP/dtmax) [1, 15]: 3192 ± 273 mmHg/s
- coronary flow (CF) [1, 15]: 9.25 ± 0.63 mL/min

Molecule: OO [H2O2, hydrogenperoxide]
- contractility (dP/dtmax) ([2]; H2O2 10 μM, n = 4): 4774 ± 185 mmHg/s
- coronary flow (CF) ([2]; H2O2 10 μM, n = 4): 13.89 ± 0.55 mL/min
- contractility (dP/dtmax) ([2]; H2O2 30 μM, n = 4): 4469 ± 167 mmHg/s
- coronary flow (CF) ([2]; H2O2 30 μM, n = 4): 15.21 ± 1 mL/min
- contractility (dP/dtmax) ([2]; H2O2 100 μM, n = 4): 4573 ± 268 mmHg/s
- coronary flow (CF) ([2]; H2O2 100 μM, n = 4): 15.7 ± 1.3 mL/min
- contractility (dP/dtmax) ([2]; H2O2 200 μM, n = 4): 1698 ± 69 mmHg/s
- coronary flow (CF) ([2]; H2O2 200 μM, n = 4): 10.42 ± 0.3 mL/min
- effect on coronary flow and contractility (in words) ([2]; concentrations higher than 100 μM H2O2): strongly reduced

B1: rasburicase (protein, listed as Aspergillus flavus)
chain: SAVKAARYGKDNVRVYKVHKDEKTGVQTVYEMTVCVLLEGEIETSYTKADNSVIVATDSIKNTIYITAKQNPVTPPELFGSILGTHFIEKYNHIHAAHVNIVCHRWTRMDIDGKPHPHSFIRDSEEKRNVQVDVVEGKGIDIKSSLSGLTVLKSTNSQFWGFLRDEYTTLKETWDRILSTDVDATWQWKNFSGLQEVRSHVPKFDATWATAREVTLKTFAEDNSASVQATMYKMAEQILARQQLIETVEYSLPNKHYFEIDLSWHKGLQNTGKNAEVFAPQSDPNGLIKCTVGRSSLKSKL
modifications: homotetramer
notes: recombinant urate oxidase enzyme from genetically modified Saccharomyces cerevisiae with Aspergillus flavus cDNA
- heart function (in words) ([1]; in the presence of uric acid, present prior and during ischemia/reperfusion): even improved
- cardiodynamics after ischemia (in words) ([1]; ischemia/reperfusion experiments): even improved
- recovery after ischemia/reperfusion (in words) ([1]; rasburicase 50 μg/mL in combination with uric acid 15 or 30 mg/L): concentration-dependently improved
